One experiment concerns the target Focal adhesion kinase 1 (Homo sapiens, UniProt Q05397). Kind of experiment: Selectivity interaction (Ambit KINOMEscan and KiNATiv profiling in Jurkat cells) EUB0000090b PTK2. The format is cell-based. The conditions noted are these: at 1 µM.
Experiment [1] has as its target Receptor tyrosine-protein kinase erbB-3 (Homo sapiens) (UniProt P21860). Kind of experiment: Selectivity interaction (Ambit KINOMEscan and KiNATiv profiling in Jurkat cells) EUB0000090b ERBB3. The format is cell-based. The settings on record: at 1 µM.
The target of experiment [2] is Cyclin-dependent kinase 7 (Homo sapiens, UniProt P50613). Kind of experiment: Selectivity interaction (KinomeScan (DiscoverX)) EUB0000607a CDK7. The settings on record: at 10 µM.
Experiment [3] concerns the target Non-receptor tyrosine-protein kinase TYK2 (Homo sapiens, UniProt P29597). Briefly: Selectivity interaction (KinomeScan (DiscoverX)) EUB0000666a TYK2. The conditions noted are these: at 10 µM.
Experiment [4] deals with Protein arginine N-methyltransferase 5 (Homo sapiens, UniProt O14744). The conditions noted are these: at 10 µM.
For experiment [5], the target named is T1, Peripheral plasma membrane protein CASK (Homo sapiens) (UniProt O14936).
T1 sequence (whole entry): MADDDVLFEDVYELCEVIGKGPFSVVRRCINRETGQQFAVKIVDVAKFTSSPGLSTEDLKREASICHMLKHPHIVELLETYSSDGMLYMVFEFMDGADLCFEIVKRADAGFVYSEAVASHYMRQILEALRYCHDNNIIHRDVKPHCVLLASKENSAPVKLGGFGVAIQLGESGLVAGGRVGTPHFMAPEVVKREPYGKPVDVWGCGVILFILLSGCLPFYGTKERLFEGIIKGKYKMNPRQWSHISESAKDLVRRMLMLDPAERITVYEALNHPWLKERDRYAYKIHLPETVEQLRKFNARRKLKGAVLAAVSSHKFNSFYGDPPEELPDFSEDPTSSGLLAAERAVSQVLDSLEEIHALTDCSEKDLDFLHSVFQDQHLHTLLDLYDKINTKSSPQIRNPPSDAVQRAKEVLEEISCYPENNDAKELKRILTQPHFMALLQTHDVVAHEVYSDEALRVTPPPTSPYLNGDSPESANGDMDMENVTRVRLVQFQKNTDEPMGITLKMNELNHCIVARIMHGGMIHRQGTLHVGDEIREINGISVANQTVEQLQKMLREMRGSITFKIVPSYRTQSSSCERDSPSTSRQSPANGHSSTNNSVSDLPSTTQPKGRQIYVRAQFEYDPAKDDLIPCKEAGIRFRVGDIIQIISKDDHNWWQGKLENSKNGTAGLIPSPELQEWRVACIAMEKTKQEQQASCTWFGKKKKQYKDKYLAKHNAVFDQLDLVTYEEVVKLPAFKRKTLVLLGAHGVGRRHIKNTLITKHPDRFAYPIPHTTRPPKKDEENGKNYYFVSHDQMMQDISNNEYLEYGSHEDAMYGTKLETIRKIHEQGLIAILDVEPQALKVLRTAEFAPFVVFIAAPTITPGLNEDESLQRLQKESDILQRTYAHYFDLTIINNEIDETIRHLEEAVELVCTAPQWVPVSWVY
Kind of experiment: Selectivity interaction (KinomeScan (DiscoverX)) EUB0001619a CASK. The settings on record: at 1 µM.

In experiment [6] the target is ATPase family AAA domain-containing protein 2 (Homo sapiens) (UniProt Q6PL18). Kind of experiment: Selectivity interaction (Bromodomain panel (DSF asssay)) EUB0000270b ATAD2.
In experiment [7] the target is 5'-AMP-activated protein kinase catalytic subunit alpha-1 (Homo sapiens, UniProt Q13131). Briefly: Selectivity interaction (KinomeScan (DiscoverX)) EUB0000045b PRKAA1.
In experiment [8] the target is Mitogen-activated protein kinase kinase kinase kinase 5 (Homo sapiens) (UniProt Q9Y4K4). Briefly: Selectivity interaction (KinomeScan (DiscoverX)) EUB0000045b MAP4K5.
In experiment [9] the target is T2, Mitogen-activated protein kinase kinase kinase 7 (Homo sapiens) (UniProt O43318).
T2 sequence (whole entry): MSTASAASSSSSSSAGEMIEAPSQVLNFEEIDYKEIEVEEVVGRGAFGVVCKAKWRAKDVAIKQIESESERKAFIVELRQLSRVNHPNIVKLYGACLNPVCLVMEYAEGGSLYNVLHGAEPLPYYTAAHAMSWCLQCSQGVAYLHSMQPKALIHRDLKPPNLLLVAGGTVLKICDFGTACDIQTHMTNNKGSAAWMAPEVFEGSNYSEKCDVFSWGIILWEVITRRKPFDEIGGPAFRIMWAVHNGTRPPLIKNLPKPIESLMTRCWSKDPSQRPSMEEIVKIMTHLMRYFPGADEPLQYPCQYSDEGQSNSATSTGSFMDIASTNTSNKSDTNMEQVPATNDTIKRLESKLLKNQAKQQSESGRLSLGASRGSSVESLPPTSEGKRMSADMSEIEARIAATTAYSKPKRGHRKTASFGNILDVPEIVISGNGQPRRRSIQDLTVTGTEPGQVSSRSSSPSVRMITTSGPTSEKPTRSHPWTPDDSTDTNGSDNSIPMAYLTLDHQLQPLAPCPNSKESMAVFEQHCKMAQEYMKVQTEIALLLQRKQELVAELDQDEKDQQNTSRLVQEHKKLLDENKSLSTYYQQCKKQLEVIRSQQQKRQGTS
Briefly: Selectivity interaction (Upstate Kinase Profiler service (Millipore)) EUB0000056c MAP3K7. The settings on record: at 1 µM.

Experiment [10] addresses T3, Serine/threonine-protein kinase Sgk2 (Homo sapiens) (UniProt Q9HBY8).
T3 sequence (whole entry): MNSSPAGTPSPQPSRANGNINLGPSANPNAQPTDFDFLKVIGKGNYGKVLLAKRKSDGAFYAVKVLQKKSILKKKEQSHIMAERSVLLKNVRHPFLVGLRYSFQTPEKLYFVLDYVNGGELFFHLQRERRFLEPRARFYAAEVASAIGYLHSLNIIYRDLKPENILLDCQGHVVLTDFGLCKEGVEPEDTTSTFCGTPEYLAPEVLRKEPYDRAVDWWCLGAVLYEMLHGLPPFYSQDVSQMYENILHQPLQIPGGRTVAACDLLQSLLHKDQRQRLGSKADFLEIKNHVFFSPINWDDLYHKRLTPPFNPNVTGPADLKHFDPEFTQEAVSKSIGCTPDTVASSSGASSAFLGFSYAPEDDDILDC
Briefly: Selectivity interaction (Upstate Kinase Profiler service (Millipore)) EUB0000056c SGK2. The conditions noted are these: at 1 µM.

Sequence of 5'-AMP-activated protein kinase catalytic subunit alpha-1 (Q13131 whole entry, looked up): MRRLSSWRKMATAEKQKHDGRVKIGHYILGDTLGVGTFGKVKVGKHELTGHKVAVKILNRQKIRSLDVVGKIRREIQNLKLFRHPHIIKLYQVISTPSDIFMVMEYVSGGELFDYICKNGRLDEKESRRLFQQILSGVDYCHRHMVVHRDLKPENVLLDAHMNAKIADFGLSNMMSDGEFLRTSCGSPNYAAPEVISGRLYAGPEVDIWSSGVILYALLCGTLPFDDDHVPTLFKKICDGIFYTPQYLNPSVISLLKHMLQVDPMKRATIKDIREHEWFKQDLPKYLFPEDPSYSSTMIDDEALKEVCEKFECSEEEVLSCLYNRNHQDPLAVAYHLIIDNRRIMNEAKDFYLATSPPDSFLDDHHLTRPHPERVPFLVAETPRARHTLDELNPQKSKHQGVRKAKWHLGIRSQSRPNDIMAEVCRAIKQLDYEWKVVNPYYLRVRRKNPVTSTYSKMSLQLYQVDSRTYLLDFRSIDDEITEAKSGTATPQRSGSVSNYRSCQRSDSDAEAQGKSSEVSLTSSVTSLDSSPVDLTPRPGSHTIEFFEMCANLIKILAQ
Sequence of Mitogen-activated protein kinase kinase kinase kinase 5 (Homo sapiens) (Q9Y4K4 whole entry, looked up): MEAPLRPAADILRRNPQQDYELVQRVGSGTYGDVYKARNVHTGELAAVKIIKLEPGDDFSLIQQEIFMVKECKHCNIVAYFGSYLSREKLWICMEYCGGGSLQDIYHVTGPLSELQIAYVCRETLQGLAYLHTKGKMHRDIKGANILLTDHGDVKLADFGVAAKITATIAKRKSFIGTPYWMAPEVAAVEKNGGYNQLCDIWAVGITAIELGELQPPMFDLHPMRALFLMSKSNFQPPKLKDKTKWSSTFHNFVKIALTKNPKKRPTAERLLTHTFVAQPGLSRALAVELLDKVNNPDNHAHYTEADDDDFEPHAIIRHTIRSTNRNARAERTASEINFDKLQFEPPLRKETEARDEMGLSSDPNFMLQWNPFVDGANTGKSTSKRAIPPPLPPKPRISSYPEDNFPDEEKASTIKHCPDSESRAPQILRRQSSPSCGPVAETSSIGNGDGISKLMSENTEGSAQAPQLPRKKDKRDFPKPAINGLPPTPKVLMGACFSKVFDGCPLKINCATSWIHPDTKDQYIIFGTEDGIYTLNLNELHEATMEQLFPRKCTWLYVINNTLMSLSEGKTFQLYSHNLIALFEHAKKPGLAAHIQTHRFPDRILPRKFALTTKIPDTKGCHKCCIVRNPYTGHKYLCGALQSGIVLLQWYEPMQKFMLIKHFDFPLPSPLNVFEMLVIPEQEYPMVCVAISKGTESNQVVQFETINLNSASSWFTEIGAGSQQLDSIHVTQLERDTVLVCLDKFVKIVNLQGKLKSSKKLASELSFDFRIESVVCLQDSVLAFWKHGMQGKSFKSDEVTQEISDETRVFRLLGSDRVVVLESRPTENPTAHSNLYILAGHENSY
Sequence of Non-receptor tyrosine-protein kinase TYK2 (P29597 whole entry): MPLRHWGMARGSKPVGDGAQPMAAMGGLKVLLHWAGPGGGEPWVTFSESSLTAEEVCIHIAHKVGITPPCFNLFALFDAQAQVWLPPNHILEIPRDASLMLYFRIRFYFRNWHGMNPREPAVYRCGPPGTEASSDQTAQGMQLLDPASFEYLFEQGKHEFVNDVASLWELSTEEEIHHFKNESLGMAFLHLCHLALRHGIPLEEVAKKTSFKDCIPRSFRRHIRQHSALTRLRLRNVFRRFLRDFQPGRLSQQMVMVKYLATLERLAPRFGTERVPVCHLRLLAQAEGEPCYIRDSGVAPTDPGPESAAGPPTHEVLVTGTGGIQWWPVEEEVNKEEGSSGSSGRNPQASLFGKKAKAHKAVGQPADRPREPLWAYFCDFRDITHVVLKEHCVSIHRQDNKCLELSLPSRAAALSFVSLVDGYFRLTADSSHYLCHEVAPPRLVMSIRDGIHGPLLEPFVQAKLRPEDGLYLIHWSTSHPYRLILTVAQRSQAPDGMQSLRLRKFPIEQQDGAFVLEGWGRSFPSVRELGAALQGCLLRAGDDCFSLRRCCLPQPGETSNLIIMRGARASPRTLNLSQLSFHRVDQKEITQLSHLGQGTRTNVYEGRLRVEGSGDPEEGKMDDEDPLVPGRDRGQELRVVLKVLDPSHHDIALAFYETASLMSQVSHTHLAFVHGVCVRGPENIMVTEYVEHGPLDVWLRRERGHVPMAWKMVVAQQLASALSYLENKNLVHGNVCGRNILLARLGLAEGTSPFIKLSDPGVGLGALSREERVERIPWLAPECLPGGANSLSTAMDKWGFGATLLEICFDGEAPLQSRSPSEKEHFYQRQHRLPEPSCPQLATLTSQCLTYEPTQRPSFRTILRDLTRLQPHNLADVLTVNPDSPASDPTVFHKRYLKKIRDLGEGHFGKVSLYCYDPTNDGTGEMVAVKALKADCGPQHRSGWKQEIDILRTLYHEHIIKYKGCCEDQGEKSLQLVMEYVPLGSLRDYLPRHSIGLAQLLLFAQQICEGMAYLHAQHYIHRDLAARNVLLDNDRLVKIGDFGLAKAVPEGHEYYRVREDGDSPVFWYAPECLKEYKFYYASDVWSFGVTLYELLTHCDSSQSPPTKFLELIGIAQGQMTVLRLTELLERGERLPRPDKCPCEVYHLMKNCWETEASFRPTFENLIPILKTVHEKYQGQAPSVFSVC
Sequence of Protein arginine N-methyltransferase 5 (O14744 whole entry): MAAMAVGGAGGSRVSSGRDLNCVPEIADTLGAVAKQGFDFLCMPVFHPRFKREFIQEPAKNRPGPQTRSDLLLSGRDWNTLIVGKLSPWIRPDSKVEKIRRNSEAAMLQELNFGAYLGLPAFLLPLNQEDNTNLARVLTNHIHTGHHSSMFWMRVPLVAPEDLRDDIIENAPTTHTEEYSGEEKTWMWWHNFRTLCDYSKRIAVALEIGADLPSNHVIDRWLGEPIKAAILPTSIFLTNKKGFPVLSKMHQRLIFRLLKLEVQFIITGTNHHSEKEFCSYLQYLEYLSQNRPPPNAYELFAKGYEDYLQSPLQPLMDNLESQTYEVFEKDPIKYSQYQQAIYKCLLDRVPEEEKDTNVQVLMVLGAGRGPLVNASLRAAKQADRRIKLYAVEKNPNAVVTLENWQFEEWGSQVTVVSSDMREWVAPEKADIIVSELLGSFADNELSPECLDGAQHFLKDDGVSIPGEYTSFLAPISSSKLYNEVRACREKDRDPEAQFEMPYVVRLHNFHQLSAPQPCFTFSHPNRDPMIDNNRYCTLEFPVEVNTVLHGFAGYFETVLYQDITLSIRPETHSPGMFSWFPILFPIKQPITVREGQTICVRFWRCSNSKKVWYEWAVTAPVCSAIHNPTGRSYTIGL
Sequence of Focal adhesion kinase 1 (Q05397 2-1052 limits assumed): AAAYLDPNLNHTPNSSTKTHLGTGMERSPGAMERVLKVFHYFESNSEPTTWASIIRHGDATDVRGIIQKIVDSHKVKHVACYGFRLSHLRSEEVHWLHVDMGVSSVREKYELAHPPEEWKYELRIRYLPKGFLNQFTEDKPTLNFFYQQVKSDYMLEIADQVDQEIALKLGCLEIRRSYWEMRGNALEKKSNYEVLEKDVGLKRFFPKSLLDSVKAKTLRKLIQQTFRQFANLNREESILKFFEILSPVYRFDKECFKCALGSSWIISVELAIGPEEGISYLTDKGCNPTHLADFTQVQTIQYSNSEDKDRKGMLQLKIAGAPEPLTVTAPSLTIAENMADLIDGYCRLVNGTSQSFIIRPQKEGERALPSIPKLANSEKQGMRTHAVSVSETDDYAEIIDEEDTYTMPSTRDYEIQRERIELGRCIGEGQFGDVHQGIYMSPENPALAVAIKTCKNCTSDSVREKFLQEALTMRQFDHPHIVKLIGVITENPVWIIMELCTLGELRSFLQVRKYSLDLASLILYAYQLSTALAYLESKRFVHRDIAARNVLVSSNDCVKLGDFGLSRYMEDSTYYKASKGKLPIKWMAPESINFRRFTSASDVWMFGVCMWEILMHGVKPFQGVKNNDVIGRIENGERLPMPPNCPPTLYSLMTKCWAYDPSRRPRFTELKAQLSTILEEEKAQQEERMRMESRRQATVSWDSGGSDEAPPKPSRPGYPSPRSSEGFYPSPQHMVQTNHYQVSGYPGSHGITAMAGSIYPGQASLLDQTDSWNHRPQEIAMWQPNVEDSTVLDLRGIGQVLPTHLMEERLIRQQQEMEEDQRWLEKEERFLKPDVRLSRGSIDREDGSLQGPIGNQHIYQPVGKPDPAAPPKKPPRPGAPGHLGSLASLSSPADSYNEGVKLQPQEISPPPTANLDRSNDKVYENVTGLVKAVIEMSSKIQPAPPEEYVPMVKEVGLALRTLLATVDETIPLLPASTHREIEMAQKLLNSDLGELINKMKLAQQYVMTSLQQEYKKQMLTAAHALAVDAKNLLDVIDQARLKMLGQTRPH
Sequence of Cyclin-dependent kinase 7 (P50613 whole entry): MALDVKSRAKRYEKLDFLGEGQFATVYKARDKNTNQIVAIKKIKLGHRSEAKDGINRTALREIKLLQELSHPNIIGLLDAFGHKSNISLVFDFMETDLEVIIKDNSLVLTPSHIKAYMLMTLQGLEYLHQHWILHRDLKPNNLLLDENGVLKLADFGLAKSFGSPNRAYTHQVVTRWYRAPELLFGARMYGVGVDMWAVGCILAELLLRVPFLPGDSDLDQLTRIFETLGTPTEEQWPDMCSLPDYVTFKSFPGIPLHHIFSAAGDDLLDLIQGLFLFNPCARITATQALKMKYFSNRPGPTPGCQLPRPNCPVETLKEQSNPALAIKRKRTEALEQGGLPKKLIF

In the case of `CN(C)C/C=C/C(=O)Nc1ccc(C(=O)N2CCCC(Nc3ncc(Cl)c(-c4c[nH]c5ccccc45)n3)C2)cc1` (stereo not drawn), the % of control on Focal adhesion kinase 1 turned out to be 74%; in [1], 98%.
`CNC(=O)Nc1ccc(-c2nc(N3CC4CCC(C3)O4)c3cnn(C4CCC5(CC4)OCCO5)c3n2)cc1` registered a % of control in [2] of 88%.
`O=C(NOC[C@H](O)CO)c1ccc(F)c(F)c1Nc1ccc(I)cc1F` came in with a % of control in experiment [3] of 100%.
Regarding `CNCCN1CCC(c2cc(CN(C)C(=O)c3cccc(Oc4ccccc4)c3)ccn2)CC1`, the % activity in experiment [4] was greater than 90%.
As to `N#Cc1cccc(-c2c[nH]c3ncnc(N4CCOCC4)c23)c1`, the % of control in [5] is 66%.
As to `Cc1cc(CN)cc(C)c1-c1ncn(C)c1-c1cncn1C`, the dTM in experiment [6] was -1.82 K.
For the compound `C=CC(=O)Nc1cc(-n2c(=O)ccc3cnc4ccc(-c5ccc(NS(C)(=O)=O)cc5)cc4c32)ccc1C`, the % of control in [7] (at 1 µM) was found to be 100%; in [7] (at 10 µM), 100%; in experiment [8] (at 1 µM), 100%; in experiment [8] (at 10 µM), 74%.
Regarding `Cc1ccc(-c2ccc3c(ccc4sc5c(c43)NC[C@@H](C)NC5=O)n2)cn1`, the % of inhibition in experiment [9] is 6%; in experiment [10], 3%.
